The target in experiment [1] is T1, Full length DGKζ (in-house protein M1-V929) (Homo sapiens, UniProt Q13574).
T1 construct: His (N); TEV cleavage site (N); made in house; host or cells: Sf9 insect cells (baculovirus, Bac-to-Bac)
In words: Biochemical DGK IC50 assay (ADP-Glo, lipid micelle substrate), DGKζ. To be noted: 0.5 nM enzyme, 140 μM ATP, 80 μM DAG, 1 hour preincubation, 1 hour reaction, room temperature, read-out: IC50s for DGKζ. Here is the method: (§1) Enzymatic reactions of DGKζ, DGKα and DGKδ were performed using ADP-Glo assay with lipid micelle substrate. […] Full length DGKα (D21-10BG, SignalChem) and full length DGKδ (D23-10G, SignalChem) were purchased. Lipid micelle was prepared by dissolving DAG (Sigma, 317505-10MG) and PS (Sigma, P7769-100MG) with chloroform which was firtherly removed by rotary evaporation. The obtained residue was resuspended in buffer containing 25 mM HEPES pH 7.0, 0.5 mM EDTA and 160 mM Octyl β-D glucopyranoside by vigorous mixing and ultrasonic (IID, Scientz).
(§2) The inhibition activities testing for the compound disclosed herein were carried out at room temperature in assay buffer containing 50 mM HEPES, 10 mM MgCl2, 0.01% BSA, 0.1 mM Na3VO4, 0.005% Tween-20 and 0.01 mM CaCl2. Compounds in DMSO were dispensed into wells of a black 384 well plate (Corning 4514) using D300e digital dispenser (Tecan). The ranges of compounds final concentration were 1.55˜10000 nM or 23.3˜150000 nM. 3 μL 2× enzyme solution was added to wells. […] After 1 hour reaction, 5 μL ADP-Glo reagent (Promga V9101) was added and incubated for 40 minutes. 10 μL Kinase Detection reagent was added and incubated for 30 minutes. Luminescence was measured on a microplate reader (PHERAstar FSX, BMG labtech). The IC50s are calculated based on inhibition of enzyme activity in the presence of increasing concentrations of compounds.
Human His-TEV-DGK-zeta-pFastBac1 and human baculovirus samples was generated using the Bac-to-Bac baculovirus expression system (Invitrogen) according to the manufacturer's protocol. The DNA used for expression of DGK-zeta, have SEQ ID Nos: 1. Baculovirus amplification was achieved using infected SF9 cells at 1:2000 virus/cells ratios, and grown for 96 hours at 27° C. post-transfected.
The expression scaled up for each protein was carried out in the […] from CORNING. 4 L of 3×10^6 cells/mL Sf9 cells (Expression System, Invitrogen) grown in SF900™ II SFM insect medium (Expression System) was infected with virus stock at 1:200 virus/cells ratio, and grown for 48 hours at 27° C. post-transfection. The infected cell culture was harvested by centrifugation at 6000 rpm for 15 min 4° C. in a SORVALL LYNX6000 centrifuge. The cell pellets were stored at −80° C.
Full length human DGKζ produced as described above, was purified from Sf9 baculovirus-infected insect cell paste. The cells were lysed using sonication method, and the lysates were clarified by centrifugation.
On the technique in general: In ADP-Glo the light output rises with the ADP produced.

Experiment [2] concerns the target T2, Full length DGKα (D21-10BG, SignalChem) (Homo sapiens, UniProt P23743).
T2 construct: Full length DGKα (D21-10BG, SignalChem); purchased SignalChem D21-10BG
In words: Biochemical DGK IC50 assay (ADP-Glo, lipid micelle substrate), DGKα. The settings on record: 7.5 nM enzyme, 140 μM ATP, 80 μM DAG, 1 hour preincubation, 1 hour reaction, room temperature, read-out: IC50s for DGKα. As for the experimental part: as §1, §2

T1 sequence (Q13574 1-929 isoform Q13574-4): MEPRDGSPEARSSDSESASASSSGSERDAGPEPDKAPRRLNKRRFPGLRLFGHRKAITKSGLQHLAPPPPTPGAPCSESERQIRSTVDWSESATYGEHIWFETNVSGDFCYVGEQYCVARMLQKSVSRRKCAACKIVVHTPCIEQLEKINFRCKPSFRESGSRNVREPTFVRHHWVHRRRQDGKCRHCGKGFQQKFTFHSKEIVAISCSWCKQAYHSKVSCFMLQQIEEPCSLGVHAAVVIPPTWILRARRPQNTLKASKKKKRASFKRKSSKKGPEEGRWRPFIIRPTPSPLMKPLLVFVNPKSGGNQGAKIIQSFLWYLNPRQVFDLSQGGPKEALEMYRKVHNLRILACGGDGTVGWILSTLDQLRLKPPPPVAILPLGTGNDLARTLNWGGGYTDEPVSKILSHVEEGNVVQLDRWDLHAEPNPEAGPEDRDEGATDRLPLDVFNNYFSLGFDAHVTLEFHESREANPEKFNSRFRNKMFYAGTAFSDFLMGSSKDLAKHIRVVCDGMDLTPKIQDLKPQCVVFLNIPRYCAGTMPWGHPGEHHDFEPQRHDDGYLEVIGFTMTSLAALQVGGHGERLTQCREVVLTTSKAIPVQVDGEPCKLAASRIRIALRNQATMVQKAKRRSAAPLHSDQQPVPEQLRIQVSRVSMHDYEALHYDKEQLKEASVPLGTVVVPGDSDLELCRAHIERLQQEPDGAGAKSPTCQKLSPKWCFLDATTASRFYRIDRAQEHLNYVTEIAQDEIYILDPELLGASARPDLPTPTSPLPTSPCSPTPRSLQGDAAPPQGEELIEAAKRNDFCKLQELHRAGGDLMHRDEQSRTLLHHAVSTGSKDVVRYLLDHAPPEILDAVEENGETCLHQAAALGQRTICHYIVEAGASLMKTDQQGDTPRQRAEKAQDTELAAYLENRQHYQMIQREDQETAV
T2 sequence (P23743 whole entry): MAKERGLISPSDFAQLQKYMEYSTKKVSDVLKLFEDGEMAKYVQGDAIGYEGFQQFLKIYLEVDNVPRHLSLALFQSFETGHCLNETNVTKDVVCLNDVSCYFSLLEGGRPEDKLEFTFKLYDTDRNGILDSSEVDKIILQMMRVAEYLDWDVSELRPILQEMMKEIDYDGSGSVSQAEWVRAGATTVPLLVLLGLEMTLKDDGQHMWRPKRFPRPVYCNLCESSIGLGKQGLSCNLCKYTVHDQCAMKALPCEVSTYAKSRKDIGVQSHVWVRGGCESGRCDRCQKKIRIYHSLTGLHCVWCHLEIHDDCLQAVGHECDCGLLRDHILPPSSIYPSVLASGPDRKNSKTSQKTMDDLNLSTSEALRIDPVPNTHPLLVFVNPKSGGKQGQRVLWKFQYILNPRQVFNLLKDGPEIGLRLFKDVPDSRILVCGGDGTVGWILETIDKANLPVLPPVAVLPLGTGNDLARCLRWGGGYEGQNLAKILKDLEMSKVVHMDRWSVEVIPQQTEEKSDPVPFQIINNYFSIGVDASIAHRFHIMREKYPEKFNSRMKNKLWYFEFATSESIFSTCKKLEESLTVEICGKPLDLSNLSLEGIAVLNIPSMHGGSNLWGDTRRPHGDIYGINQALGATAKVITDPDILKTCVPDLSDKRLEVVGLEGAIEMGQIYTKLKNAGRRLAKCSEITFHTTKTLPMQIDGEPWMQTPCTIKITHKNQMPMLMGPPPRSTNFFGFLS

On to `CC[C@H]1CN(C(C)c2ccc3scnc3c2)[C@H](CC)CN1c1cc(=O)n(C)n2cc(CC#N)nc12` (single isomer, unassigned) [Compound A65a], for which the IC50 in experiment [1] was found to be 7 nM; in experiment [2] it was 47 nM.
On the same counts, the results for `CC[C@H]1CN(C(C)c2ccc3scnc3c2)[C@H](CC)CN1c1cc(=O)n(C)n2cc(CC#N)nc12` (single isomer, unassigned) [Compound A65b] are 158 nM and 157 nM.
Consider `CC[C@H]1CN(C(C)c2ccc3scnc3c2F)[C@H](CC)CN1c1cc(=O)n(C)n2cc(CC#N)nc12` (single isomer, unassigned) [Compound A66a], for which the figures for the IC50 in experiment [1] and in experiment [2] were 22 nM and 105 nM, respectively.
The like results for `CC[C@H]1CN(C(C)c2ccc3scnc3c2F)[C@H](CC)CN1c1cc(=O)n(C)n2cc(CC#N)nc12` (single isomer, unassigned) [Compound A66b] were, in that order, 1440 nM and 1640 nM.
The like results for `CC#CCc1cn2c(n1)c(N1C[C@@H](CC)N(C(C)c3ccc4nc(C)sc4c3)C[C@@H]1CC)cc(=O)n2C` (single isomer, unassigned) [Compound A68a] were, in that order, 104 nM and 26 nM.
On the same counts, the results for `CC#CCc1cn2c(n1)c(N1C[C@@H](CC)N(C(C)c3ccc4nc(C)sc4c3)C[C@@H]1CC)cc(=O)n2C` (single isomer, unassigned) [Compound A68b] are more than 10000 nM and 527 nM.
`CC[C@H]1CN(C(C)c2ccc(C3CC3(F)F)nc2)[C@H](CC)CN1c1cc(=O)n(C)n2cc(CC#N)nc12` (single isomer, unassigned) [Compound A70a]: the IC50 in experiment [1] stood at 244 nM; in experiment [2], 102 nM.
As to `CC[C@H]1CN(C(C)c2ccc(C3CC3(F)F)nc2)[C@H](CC)CN1c1cc(=O)n(C)n2cc(CC#N)nc12` (single isomer, unassigned) [Compound A70b], the IC50 is 886 nM in experiment [1] and 466 nM in experiment [2].
Regarding `CC[C@H]1CN(C(C)c2ccc(C3CC3)nc2)[C@H](CC)CN1c1c(F)c(=O)n(C)n2cc(CC#N)nc12` (single isomer, unassigned) [Compound A73a], the IC50 in experiment [1] was 77 nM; in experiment [2] it was 177 nM.
On the same counts, the results for `CC[C@H]1CN(C(C)c2ccc(C3CC3)nc2)[C@H](CC)CN1c1c(F)c(=O)n(C)n2cc(CC#N)nc12` (single isomer, unassigned) [Compound A73b] are 302 nM and 832 nM.
Regarding `CC[C@@H]1CN(c2c(C#N)c(=O)n(C)n3cc(CC#N)nc23)[C@@H](C)CN1C(C)c1ccc(C2CC2)nc1` (single isomer, unassigned) [Compound A74a], the IC50 turned out to be 166 nM in experiment [1] and 682 nM in experiment [2].
The like results for `CC[C@@H]1CN(c2c(C#N)c(=O)n(C)n3cc(CC#N)nc23)[C@@H](C)CN1C(C)c1ccc(C2CC2)nc1` (single isomer, unassigned) [Compound A74b] were, in that order, 1550 nM and 1430 nM.
On the same counts, the results for `CC[C@H]1CN(C(C)c2ccc(C3CC3)nc2)[C@H](CC)CN1c1c(C#N)c(=O)n(C)n2cc(CC#N)nc12` (single isomer, unassigned) [Compound A75a] are 276 nM and 420 nM.
The like results for `CC[C@H]1CN(C(C)c2ccc(C3CC3)nc2)[C@H](CC)CN1c1c(C#N)c(=O)n(C)n2cc(CC#N)nc12` (single isomer, unassigned) [Compound A75b] were, in that order, 1050 nM and 1300 nM.
With `CCC(c1ccc(C(F)(F)F)cc1)N1C[C@H](CC)N(c2cc(=O)n(C)n3cc(CC#N)nc23)C[C@H]1CC` (single isomer, unassigned) [Compound A77a], the values for the IC50 in experiment [1] and in experiment [2] were 255 nM and 102 nM, respectively.
The like results for `CCC(c1ccc(C(F)(F)F)cc1)N1C[C@H](CC)N(c2cc(=O)n(C)n3cc(CC#N)nc23)C[C@H]1CC` (single isomer, unassigned) [Compound A77b] were, in that order, 1940 nM and 454 nM.
On the same counts, the results for `CC[C@H]1CN(C(C)c2ccc3nc(C)sc3n2)[C@H](CC)CN1c1c(F)c(=O)n(C)n2cc(CC#N)nc12` (single isomer, unassigned) [Compound A82a] are 15 nM and 26 nM.
Turning to `CC[C@H]1CN(C(C)c2ccc3nc(C)sc3n2)[C@H](CC)CN1c1c(F)c(=O)n(C)n2cc(CC#N)nc12` (single isomer, unassigned) [Compound A82b], the IC50 in experiment [1] was determined as 1050 nM; in experiment [2], 233 nM.
As to `CC[C@@H]1CN(c2cc(=O)n(C)n3cc(CC#N)nc23)[C@@H](C)CN1C(C)c1ccc2nc(C)sc2n1` (single isomer, unassigned) [Compound A84a], the IC50 in experiment [1] stood at 52 nM; in experiment [2] it was 169 nM.
On the same counts, the results for `CC[C@@H]1CN(c2cc(=O)n(C)n3cc(CC#N)nc23)[C@@H](C)CN1C(C)c1ccc2nc(C)sc2n1` (single isomer, unassigned) [Compound A84b] are 5090 nM and 3310 nM.
`CCC(c1ccc(C2CC2)nc1)N1C[C@H](CC)N(c2cc(=O)n(C)n3cc(CC#N)nc23)C[C@H]1CC` (single isomer, unassigned) [Compound A89a]: the IC50 was found to be 73 nM in experiment [1] and 171 nM in experiment [2].
The like results for `CCC(c1ccc(C2CC2)nc1)N1C[C@H](CC)N(c2cc(=O)n(C)n3cc(CC#N)nc23)C[C@H]1CC` (single isomer, unassigned) [Compound A89b] were, in that order, 1010 nM and 1520 nM.
The like results for `CC[C@H]1CN(C(C)c2ccc(C(C)(F)F)nc2)[C@H](CC)CN1c1cc(=O)n(C)n2cc(CC#N)nc12` (single isomer, unassigned) [Compound A90a] were, in that order, 25 nM and 121 nM.
On the same counts, the results for `CC[C@H]1CN(C(C)c2ccc(C(C)(F)F)nc2)[C@H](CC)CN1c1cc(=O)n(C)n2cc(CC#N)nc12` (single isomer, unassigned) [Compound A90b] are 802 nM and 386 nM.
With `CC[C@H]1CN(C(C)c2ccc(C(F)(F)F)cc2)[C@H](CC)CN1c1cc(=O)n(C)n2cc(CC#N)nc12` (single isomer, unassigned) [Compound A91a], the IC50 was determined as 73 nM in experiment [1] and 155 nM in experiment [2].
On the same counts, the results for `CC[C@H]1CN(C(C)c2ccc(C(F)(F)F)cc2)[C@H](CC)CN1c1cc(=O)n(C)n2cc(CC#N)nc12` (single isomer, unassigned) [Compound A91b] are 1430 nM and 319 nM.
On the same counts, the results for `CC[C@H]1CN(C(C)c2ccc(C(F)(F)F)cc2F)[C@H](CC)CN1c1cc(=O)n(C)n2cc(CC#N)nc12` (single isomer, unassigned) [Compound A92a] are 52 nM and 87 nM.
The like results for `CC[C@H]1CN(C(C)c2ccc(C(F)(F)F)cc2F)[C@H](CC)CN1c1cc(=O)n(C)n2cc(CC#N)nc12` (single isomer, unassigned) [Compound A92b] were, in that order, 1610 nM and 803 nM.
As for `[2H]C([2H])([2H])n1c(=O)cc(N2C[C@@H](CC)N(C(C)c3ccc4nc(C)sc4c3)C[C@@H]2CC)c2nc(CC#N)cn21` (single isomer, unassigned) [Compound A94a], the results for the IC50 in experiment [1] and in experiment [2] were 24 nM and 108 nM, respectively.
On the same counts, the results for `[2H]C([2H])([2H])n1c(=O)cc(N2C[C@@H](CC)N(C(C)c3ccc4nc(C)sc4c3)C[C@@H]2CC)c2nc(CC#N)cn21` (single isomer, unassigned) [Compound A94b] are 1150 nM and 3790 nM.
On to `[2H]C([2H])([2H])C(c1ccc2nc(C)sc2c1)N1C[C@H](CC)N(c2cc(=O)n(C([2H])([2H])[2H])n3cc(CC#N)nc23)C[C@H]1CC` (single isomer, unassigned) [Compound A95a], for which the IC50 in experiment [1] worked out at 27 nM; in experiment [2], 101 nM.

For the origin of these results see patent US20240327417A1, “HETEROCYCLIC COMPOUNDS” (BeiGene Switzerland GmbH, priority 2021, published 2024).
